Source: PubChem BioAssay AID1963844 (Molecular Pharmacology Branch, DTP, NCI, 2024)

System: 422866-222-R5-J1-PDC complex spheroid viability
Experiment: Anticancer human tumor 422866-222-R5-J1-PDC patient-derived pancreatic adenocarcinoma cell line growth inhibition [POLQ]
Details: for IC50: curve of first compound; for viability, T/C: stronger effect = lower value
Summary of the method: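 Patient-derived tumour cells were co-cultured with HUVEC and mesenchymal stem cells as multicellular spheroids at 37 °C. They were treated with POLQ inhibitors (novobiocin, ART-558, RP6685) alone or combined with other agents. Top concentrations were at or near clinical Cmax (otherwise 10 microM; SN-38 at 1 microM), decreasing in half-log steps.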

[1] = second compound 0.0316 µM, first compound 0.00316 µM
[2] = second compound 0.0316 µM, first compound 0.01 µM
[3] = second compound 0.0316 µM, first compound 0.0316 µM
[4] = second compound 0.0316 µM, first compound 0.1 µM
[5] = second compound 0.0316 µM, first compound 0.316 µM
[6] = second compound 0.0316 µM, first compound 1 µM
[7] = second compound 0.1 µM, first compound 0.00316 µM
[8] = second compound 0.1 µM, first compound 0.01 µM
[9] = second compound 0.1 µM, first compound 0.0316 µM
[10] = second compound 0.1 µM, first compound 0.1 µM
[11] = second compound 0.1 µM, first compound 0.316 µM
[12] = second compound 0.1 µM, first compound 1 µM
[13] = second compound 0.316 µM, first compound 0.00316 µM
[14] = second compound 0.316 µM, first compound 0.01 µM
[15] = second compound 0.316 µM, first compound 0.0316 µM
[16] = second compound 0.316 µM, first compound 0.1 µM
[17] = second compound 0.316 µM, first compound 0.316 µM
[18] = second compound 0.316 µM, first compound 1 µM
[19] = second compound 1 µM, first compound 0.00316 µM
[20] = second compound 1 µM, first compound 0.01 µM
[21] = second compound 1 µM, first compound 0.0316 µM
[22] = second compound 1 µM, first compound 0.1 µM
[23] = second compound 1 µM, first compound 0.316 µM
[24] = second compound 1 µM, first compound 1 µM
[25] = second compound 3.16 µM, first compound 0.00316 µM
[26] = second compound 3.16 µM, first compound 0.01 µM
[27] = second compound 3.16 µM, first compound 0.0316 µM
[28] = second compound 3.16 µM, first compound 0.1 µM
[29] = second compound 3.16 µM, first compound 0.316 µM
[30] = second compound 3.16 µM, first compound 1 µM
[31] = second compound 10 µM, first compound 0.00316 µM
[32] = second compound 10 µM, first compound 0.01 µM
[33] = second compound 10 µM, first compound 0.0316 µM
[34] = second compound 10 µM, first compound 0.1 µM
[35] = second compound 10 µM, first compound 0.316 µM
[36] = second compound 10 µM, first compound 1 µM
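Note: spheroids exposed to compounds for one week before readout.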
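Throughout, for viability, T/C: percent of DMSO vehicle wells luminescence so 100% = untreated viability.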

CCc1c2c(nc3ccc(O)cc13)-c1cc3c(c(=O)n1C2)COC(=O)[C@]3(O)CC + Cc1cccc(N(C)C(=O)C2C(O)CCN2c2nc(C)cc(C(F)(F)F)c2C#N)c1
IC50 (second compound 0.0316 µM): < 3.16 nM | IC50 (second compound 0.1 µM): < 3.16 nM | IC50 (second compound 0.316 µM): < 3.16 nM | IC50 (second compound 1 µM): < 3.16 nM | IC50 (second compound 3.16 µM): < 3.16 nM | IC50 (second compound 10 µM): < 3.16 nM | viability, T/C [1]: 44.4% | viability, T/C [2]: 37.4% | viability, T/C [3]: 38.7% | viability, T/C [4]: 37.7% | viability, T/C [5]: 34.4% | viability, T/C [6]: 21.4% | viability, T/C [7]: 49.1% | viability, T/C [8]: 34.3% | viability, T/C [9]: 38.9% | viability, T/C [10]: 34.8% | viability, T/C [11]: 34.2% | viability, T/C [12]: 28.2% | viability, T/C [13]: 46.2% | viability, T/C [14]: 40.4% | viability, T/C [15]: 37.3% | viability, T/C [16]: 38.1% | viability, T/C [17]: 34.6% | viability, T/C [18]: 25% | viability, T/C [19]: 40.9% | viability, T/C [20]: 45.4% | viability, T/C [21]: 34.4% | viability, T/C [22]: 35.2% | viability, T/C [23]: 40.6% | viability, T/C [24]: 18.2% | viability, T/C [25]: 49.7% | viability, T/C [26]: 38.3% | viability, T/C [27]: 35.1% | viability, T/C [28]: 34.6% | viability, T/C [29]: 39.3% | viability, T/C [30]: 26.4% | viability, T/C [31]: 42.1% | viability, T/C [32]: 40.1% | viability, T/C [33]: 42.2% | viability, T/C [34]: 38% | viability, T/C [35]: 44.2% | viability, T/C [36]: 24.6%

CCc1cc2c(N3CCc4c(cc(Cn5ccnc5)cc4-c4cn(C)nc4C(F)(F)F)C3=O)ccnc2c(OC)n1 + Cc1cccc(N(C)C(=O)C2C(O)CCN2c2nc(C)cc(C(F)(F)F)c2C#N)c1
IC50 (second compound 0.0316 µM): > 10000 nM | IC50 (second compound 0.1 µM): > 10000 nM | IC50 (second compound 0.316 µM): > 10000 nM | IC50 (second compound 1 µM): > 10000 nM | IC50 (second compound 3.16 µM): > 10000 nM | IC50 (second compound 10 µM): > 10000 nM | viability, T/C [3]: 96.1% | viability, T/C [4]: 99.6% | viability, T/C [5]: 93.3% | viability, T/C [6]: 88.2% | viability, T/C (second compound 0.0316 µM, first compound 3.16 µM): 87.6% | viability, T/C (second compound 0.0316 µM, first compound 10 µM): 91.8% | viability, T/C [9]: 88.4% | viability, T/C [10]: 87.9% | viability, T/C [11]: 83.5% | viability, T/C [12]: 112% | viability, T/C (second compound 0.1 µM, first compound 3.16 µM): 91.4% | viability, T/C (second compound 0.1 µM, first compound 10 µM): 99.2% | viability, T/C [15]: 90.7% | viability, T/C [16]: 84.7% | viability, T/C [17]: 91.7% | viability, T/C [18]: 96.3% | viability, T/C (second compound 0.316 µM, first compound 3.16 µM): 96.2% | viability, T/C (second compound 0.316 µM, first compound 10 µM): 112% | viability, T/C [21]: 73% | viability, T/C [22]: 80.2% | viability, T/C [23]: 86.1% | viability, T/C [24]: 98.2% | viability, T/C (second compound 1 µM, first compound 3.16 µM): 97.7% | viability, T/C (second compound 1 µM, first compound 10 µM): 114% | viability, T/C [27]: 87.4% | viability, T/C [28]: 87.6% | viability, T/C [29]: 89.5% | viability, T/C [30]: 85.4% | viability, T/C (second compound 3.16 µM, first compound 3.16 µM): 108% | viability, T/C (second compound 3.16 µM, first compound 10 µM): 115% | viability, T/C [33]: 100% | viability, T/C [34]: 94.2% | viability, T/C [35]: 90.7% | viability, T/C [36]: 93.5% | viability, T/C (second compound 10 µM, first compound 3.16 µM): 107% | viability, T/C (second compound 10 µM, first compound 10 µM): 105%

CC[C@@]1(O)C(=O)OCc2c1cc1n(c2=O)Cc2cc3c(CN(C)C)c(O)ccc3nc2-1 + Cc1cccc(N(C)C(=O)C2C(O)CCN2c2nc(C)cc(C(F)(F)F)c2C#N)c1
IC50 (second compound 0.0316 µM): 30.7 nM | IC50 (second compound 0.1 µM): 24.1 nM | IC50 (second compound 0.316 µM): 31.2 nM | IC50 (second compound 1 µM): 47 nM | IC50 (second compound 3.16 µM): 25.9 nM | IC50 (second compound 10 µM): 31.3 nM | viability, T/C (second compound 0.0316 µM, first compound 0.000316 µM): 104% | viability, T/C (second compound 0.0316 µM, first compound 0.001 µM): 101% | viability, T/C [1]: 85.7% | viability, T/C [2]: 75.7% | viability, T/C [3]: 42.5% | viability, T/C [4]: 45.5% | viability, T/C (second compound 0.1 µM, first compound 0.000316 µM): 105% | viability, T/C (second compound 0.1 µM, first compound 0.001 µM): 104% | viability, T/C [7]: 97% | viability, T/C [8]: 62.6% | viability, T/C [9]: 46.2% | viability, T/C [10]: 44.4% | viability, T/C (second compound 0.316 µM, first compound 0.000316 µM): 114% | viability, T/C (second compound 0.316 µM, first compound 0.001 µM): 105% | viability, T/C [13]: 98.2% | viability, T/C [14]: 87.5% | viability, T/C [15]: 47.6% | viability, T/C [16]: 46.3% | viability, T/C (second compound 1 µM, first compound 0.000316 µM): 114% | viability, T/C (second compound 1 µM, first compound 0.001 µM): 111% | viability, T/C [19]: 91% | viability, T/C [20]: 77.5% | viability, T/C [21]: 53.5% | viability, T/C [22]: 41.1% | viability, T/C (second compound 3.16 µM, first compound 0.000316 µM): 96.2% | viability, T/C (second compound 3.16 µM, first compound 0.001 µM): 108% | viability, T/C [25]: 98.9% | viability, T/C [26]: 80.3% | viability, T/C [27]: 40.8% | viability, T/C [28]: 46.6% | viability, T/C (second compound 10 µM, first compound 0.000316 µM): 82% | viability, T/C (second compound 10 µM, first compound 0.001 µM): 106% | viability, T/C [31]: 102% | viability, T/C [32]: 77% | viability, T/C [33]: 50.7% | viability, T/C [34]: 48.8%
